Data taken from ChEMBL document CHEMBL3046832, “Synthesis of some sulfonamides, disubstituted sulfonylureas or thioureas and some structurally related variants. A class of promising antitumor agents” (2007).

How the values were obtained:
Assay type in all cases: functional
MDA-MB-435 = experiment: Cytotoxicity against Homo sapiens (human) MDA-MB-435 cells after 48 hr by SRB assay; conditions: MDA-MB-435, 48 h
Hs-578T = experiment: Cytotoxicity against Homo sapiens (human) Hs578T cells after 48 hr by SRB assay
MCF7 [1] = experiment: Cytotoxicity against Homo sapiens (human) MCF7 cells after 48 hr by SRB assay; conditions: MCF7, 48 h
DU-145 = experiment: Cytotoxicity against Homo sapiens (human) DU145 cells after 48 hr by SRB assay; conditions: DU-145, 48 h
UO-31 = experiment: Cytotoxicity against Homo sapiens (human) UO31 cells after 48 hr by SRB assay; conditions: UO-31, 48 h
RXF 393 = experiment: Cytotoxicity against Homo sapiens (human) RXF393 cells after 48 hr by SRB assay; conditions: RXF 393, 48 h
SN12C = experiment: Cytotoxicity against Homo sapiens (human) SN12C cells after 48 hr by SRB assay
CAKI-1 = experiment: Cytotoxicity against Homo sapiens (human) Caki1 cells after 48 hr by SRB assay; conditions: CAKI-1, 48 h
ACHN = experiment: Cytotoxicity against Homo sapiens (human) ACHN cells after 48 hr by SRB assay
786-0 = experiment: Cytotoxicity against Homo sapiens (human) 786-0 cells after 48 hr by SRB assay; conditions: 786-0, 48 h
[2] = Cytotoxicity against Homo sapiens (human) NCI-ADR-RES cells after 48 hr by SRB assay
SK-OV-3 = experiment: Cytotoxicity against Homo sapiens (human) SKOV3 cells after 48 hr by SRB assay; conditions: SK-OV-3, 48 h
OVCAR-8 = experiment: Cytotoxicity against Homo sapiens (human) OVCAR8 cells after 48 hr by SRB assay; conditions: OVCAR-8, 48 h
OVCAR-5 = experiment: Cytotoxicity against Homo sapiens (human) OVCAR5 cells after 48 hr by SRB assay; conditions: OVCAR-5, 48 h
OVCAR-4 = experiment: Cytotoxicity against Homo sapiens (human) OVCAR4 cells after 48 hr by SRB assay; conditions: OVCAR-4, 48 h
UACC-62 = experiment: Cytotoxicity against Homo sapiens (human) UACC62 cells after 48 hr by SRB assay; conditions: UACC-62, 48 h
UACC-257 = experiment: Cytotoxicity against Homo sapiens (human) UACC257 cells after 48 hr by SRB assay; conditions: UACC-257, 48 h
SK-MEL-2 = experiment: Cytotoxicity against Homo sapiens (human) SK-MEL-2 cells after 48 hr by SRB assay; conditions: SK-MEL-2, 48 h
SK-MEL-28 = experiment: Cytotoxicity against Homo sapiens (human) SK-MEL-28 cells after 48 hr by SRB assay; conditions: SK-MEL-28, 48 h
[3] = Cytotoxicity against Homo sapiens (human) breast cancer cells after 48 hr by SRB assay; conditions: Cancer cell lines
[4] = Cytotoxicity against Homo sapiens (human) renal cancer cells after 48 hr by SRB assay; conditions: Cancer cell lines
[5] = Cytotoxicity against Homo sapiens (human) ovarian cancer cells after 48 hr by SRB assay; conditions: Cancer cell lines
[6] = Cytotoxicity against Homo sapiens (human) melanoma cells after 48 hr by SRB assay; conditions: Melanoma cell
[7] = Cytotoxicity against Homo sapiens (human) CNS cancer cells after 48 hr by SRB assay; conditions: Cancer cell lines
NCI-H460 [8] = experiment: Cytotoxicity against Homo sapiens (human) NCI-H460 cells assessed as cellular growth after 48 hr by Alamar blue assay; design: concentration or dose not given beside the values
[9] = Cytotoxicity against Homo sapiens (human) leukemia cells after 48 hr by SRB assay; conditions: Leukemia cell
SF-268 [10] = experiment: Cytotoxicity against Homo sapiens (human) SF268 cells assessed as cellular growth after 48 hr by Alamar blue assay; design: concentration or dose not given beside the values
BT-549 = experiment: Cytotoxicity against Homo sapiens (human) BT549 cells after 48 hr by SRB assay; conditions: BT-549, 48 h
T47D = experiment: Cytotoxicity against Homo sapiens (human) T47D cells after 48 hr by SRB assay
SNB-19 = experiment: Cytotoxicity against Homo sapiens (human) SNB19 cells after 48 hr by SRB assay; conditions: SNB-19, 48 h
SF-539 = experiment: Cytotoxicity against Homo sapiens (human) SF539 cells after 48 hr by SRB assay; conditions: SF-539, 48 h
SF-295 = experiment: Cytotoxicity against Homo sapiens (human) SF295 cells after 48 hr by SRB assay; conditions: SF-295, 48 h
SW-620 = experiment: Cytotoxicity against Homo sapiens (human) SW620 cells after 48 hr by SRB assay; conditions: SW-620, 48 h
SF-268 [11] = experiment: Cytotoxicity against Homo sapiens (human) SF268 cells after 48 hr by SRB assay; conditions: SF-268, 48 h
KM12 = experiment: Cytotoxicity against Homo sapiens (human) KM12 cells after 48 hr by SRB assay; conditions: KM12, 48 h
HCT-15 = experiment: Cytotoxicity against Homo sapiens (human) HCT15 cells after 48 hr by SRB assay; conditions: HCT-15, 48 h
HT-29 = experiment: Cytotoxicity against Homo sapiens (human) HT-29 cells after 48 hr by SRB assay; conditions: HT-29, 48 h
NCI-H522 = experiment: Cytotoxicity against Homo sapiens (human) NCI-H522 cells after 48 hr by SRB assay; conditions: NCI-H522, 48 h
COLO 205 = experiment: Cytotoxicity against Homo sapiens (human) COLO205 cells after 48 hr by SRB assay; conditions: COLO 205, 48 h
[12] = Cytotoxicity against Homo sapiens (human) NCI-H322 cells after 48 hr by SRB assay; conditions: NCI-H322, 48 h
NCI-H460 [13] = experiment: Cytotoxicity against Homo sapiens (human) NCI-H460 cells after 48 hr by SRB assay; conditions: NCI-H460, 48 h
HOP-92 = experiment: Cytotoxicity against Homo sapiens (human) HOP92 cells after 48 hr by SRB assay; conditions: HOP-92, 48 h
EKVX = experiment: Cytotoxicity against Homo sapiens (human) EKVX cells after 48 hr by SRB assay
RPMI-8226 = experiment: Cytotoxicity against Homo sapiens (human) RPMI8226 cells after 48 hr by SRB assay; conditions: RPMI-8226, 48 h
CCRF-CEM = experiment: Cytotoxicity against Homo sapiens (human) CCRF-CEM cells after 48 hr by SRB assay
MCF7 [14] = experiment: Cytotoxicity against Homo sapiens (human) MCF7 cells assessed as cellular growth after 48 hr by Alamar blue assay; design: concentration or dose not given beside the values
HOP-62 = experiment: Cytotoxicity against Homo sapiens (human) HOP62 cells after 48 hr by SRB assay; conditions: HOP-62, 48 h

## O=C(NC(=S)NS(=O)(=O)c1ccc(N2N=C3c4ccccc4CC3C2c2cccs2)cc1)c1ccccc1 (stereo not drawn)
MDA-MB-435
  GI50: 21.7 µM
Hs-578T
  GI50: 16.1 µM
MCF7 [1]
  GI50: > 100 µM
DU-145
  GI50: 28.3 µM
UO-31
  GI50: 41.1 µM
RXF 393
  GI50: 54 µM
SN12C
  GI50: 26 µM
CAKI-1
  GI50: 26.1 µM
ACHN
  GI50: > 100 µM
786-0
  GI50: 27.9 µM
[2]
  GI50: 18.8 µM
SK-OV-3
  GI50: 90.8 µM
OVCAR-8
  GI50: 20.3 µM
OVCAR-5
  GI50: 18.7 µM
OVCAR-4
  GI50: 87.6 µM
UACC-62
  GI50: 14.6 µM
UACC-257
  GI50: 42.8 µM
SK-MEL-2
  GI50: 44 µM
SK-MEL-28
  GI50: 84 µM
[3]
  GI50: 38.6 µM
  TGI: 83.7 µM
[4]
  GI50: 45.8 µM
  TGI: 87.2 µM
[5]
  GI50: 41.9 µM
  TGI: 95.3 µM
[6]
  GI50: 34.1 µM
  TGI: 67.7 µM
[7]
  GI50: 53.3 µM
  TGI: 90.9 µM
NCI-H460 [8]
  Activity: <=32%
[9]
  GI50: 27.9 µM
  TGI: 77.2 µM
SF-268 [10]
  Activity: <=32%
BT-549
  GI50: 21.6 µM
T47D
  GI50: 69.6 µM
SNB-19
  GI50: 46.3 µM
SF-539
  GI50: 27.9 µM
SF-295
  GI50: 25.4 µM
SW-620
  GI50: 34.8 µM
SF-268 [11]
  GI50: > 100 µM
KM12
  GI50: 28.2 µM
HCT-15
  GI50: 30.2 µM
HT-29
  GI50: 46 µM
NCI-H522
  GI50: 20.5 µM
COLO 205
  GI50: 38.4 µM
[12]
  GI50: 14.2 µM
NCI-H460 [13]
  GI50: > 100 µM
HOP-92
  GI50: 53 µM
EKVX
  GI50: 19.6 µM
RPMI-8226
  GI50: 29.7 µM
CCRF-CEM
  GI50: 27.9 µM
MCF7 [14]
  Activity: <=32%

## O=C1CCS/C(=N\S(=O)(=O)c2ccc(N3N=C4c5ccccc5CC4C3c3cccs3)cc2)N1c1ccccc1 (stereo not drawn)
MDA-MB-435
  GI50: 38.7 µM
Hs-578T
  GI50: 60.6 µM
MCF7 [1]
  GI50: 29.1 µM
DU-145
  GI50: > 100 µM
UO-31
  GI50: > 100 µM
RXF 393
  GI50: 98.2 µM
SN12C
  GI50: 94.3 µM
CAKI-1
  GI50: 73 µM
ACHN
  GI50: 42.5 µM
786-0
  GI50: 64.2 µM
[2]
  GI50: > 100 µM
SK-OV-3
  GI50: 32.9 µM
OVCAR-8
  GI50: 19.2 µM
OVCAR-5
  GI50: 22.4 µM
OVCAR-4
  GI50: 49.3 µM
UACC-62
  GI50: 16.7 µM
UACC-257
  GI50: 24.2 µM
SK-MEL-2
  GI50: 28 µM
SK-MEL-28
  GI50: 42.1 µM
[3]
  GI50: 61.1 µM
  TGI: 56.2 µM
[5]
  GI50: 27.8 µM
  TGI: 55.4 µM
[6]
  GI50: 22 µM
  TGI: 33.8 µM
[7]
  GI50: 34.1 µM
  TGI: 54.1 µM
NCI-H460 [8]
  Activity: <=32%
[9]
  GI50: 48.3 µM
  TGI: 93.9 µM
SF-268 [10]
  Activity: <=32%
BT-549
  GI50: 47.5 µM
T47D
  GI50: > 100 µM
SNB-19
  GI50: 22.3 µM
SF-539
  GI50: 21.8 µM
SF-295
  GI50: 15.8 µM
SW-620
  GI50: 24 µM
SF-268 [11]
  GI50: > 100 µM
KM12
  GI50: 17.1 µM
HCT-15
  GI50: 15.9 µM
HT-29
  GI50: 37 µM
NCI-H522
  GI50: 15.9 µM
COLO 205
  GI50: 36.8 µM
[12]
  GI50: 12.8 µM
NCI-H460 [13]
  GI50: > 100 µM
HOP-92
  GI50: 35.9 µM
EKVX
  GI50: 25.7 µM
HOP-62
  GI50: 18.6 µM
RPMI-8226
  GI50: 18.1 µM
CCRF-CEM
  GI50: 28 µM
MCF7 [14]
  Activity: <=32%
